In patent US20260355079A1, “Oral Care Compositions Comprising Hops Beta Acids And Fluoride Ions” (priority 2019, published 2026):

System: 3-day biofilm (plaque biofilm)
Experiment: in vitro plaque glycolysis model (iPGRM): acid production and acid (glycolysis) inhibition
Format: cell-based, plaque microorganisms from pooled human saliva
Details: TABLE 2; 2 min treatment, slurry in water (1:5)
Experimental: Acid Production and Acid Inhibition [%]
Acid production and acid inhibition were determined with the in vitro plaque glycolysis model (iPGRM). The purpose of this technique is to provide a simple and quick method for determining if compounds have an influence on the metabolic pathways that plaque microorganisms utilize to produce toxins that adversely affect gingival health.
The in vitro plaque glycolysis model (iPGRM) is a technique in which plaque is grown from human saliva and treated with various agents to determine anti-glycolytic activity of treatments. When bacteria convert sugar into energy with the help of enzymes, acids are formed. These acids demineralize and damage the dental enamel. The purpose of this technique is to provide a simple and quick method for determining if treatment compounds have an inhibitory effect on the metabolic pathways that plaque microorganisms utilize for the production of acids or toxins and/or inhibit their growth. […]
[…] The pH of the media solutions was then measured to determine the amount of glycolysis inhibition relative to a negative control.
On Day 1, new glass rods (5 mm×90 mm) were polished approximately 25 mm from the un-tapered end on a lathe with silicon carbide paper of 240, 320, 400, and 600 grit used sequentially. […] After polishing, rods were stored until ready to run test. […]

SMILES: [H]/N=C(\N/C(=N/[H])NCCCCCCNC(=N)NC(=N)Nc1ccc(Cl)cc1)Nc1ccc(Cl)cc1 [Chlorhexidine]
- Acid Production (ΔpH), Mean: 0.30
